The values below come from US9676704B2, “Pesticidal compositions and processes related thereto” (Dow AgroSciences LLC, priority 2014, dated 2017).

Series [1] concerns Yellow Fever Mosquito (YFM). In kind it is in vivo, Aedes aegypti. Particulars: 15 μL of diluted 4000 ppm master solution per well, about 1 day-old larvae, 3 days. How it is done:
Master plates containing 400 μg of a molecule dissolved in 100 μL of dimethyl sulfoxide (DMSO) (equivalent to a 4000 ppm solution) are used. A master plate of assembled molecules contains 15 μL per well. To this plate, 135 μL of a 90:10 water:acetone mixture is added to each well. A robot (Biomek® NXP Laboratory Automation Workstation) is programmed to dispense 15 μL aspirations from the master plate into an empty 96-well shallow plate (“daughter” plate). There are 6 reps (“daughter” plates) created per master. The created daughter plates are then immediately infested with YFM larvae. The day before plates are to be treated, mosquito eggs are placed in Millipore water containing liver powder to begin hatching (4 g. into 400 mL). After the daughter plates are created using the robot, they are infested with 220 μL of the liver powder/larval mosquito mixture (about 1 day-old larvae). After plates are infested with mosquito larvae, a non-evaporative lid is used to cover the plate to reduce drying. Plates are held at room temperature for 3 days prior to grading. After 3 days, each well is observed and scored based on mortality. The results are indicated in the table entitled “Table ABC: Assay Results (F)” and “Table ABCD: Assay Results (C)” (See Table Section). Pesticidally Acceptable Acid Addition Salts, Salt Derivatives, Solvates, Ester Derivatives, Polymorphs, Isotopes and Radionuclides

For series [2], the system named is Beet Armyworm (BAW). Put plainly: Bioassays on BAW, 128-well diet tray assay. In kind it is in vivo. Particulars: Spodoptera exigua, 168 h; 50 μg/cm^2 on artificial diet, second instar larvae, five to seven days, 25° C.; read-out: BAW % Control (or Mortality) rating. How it is done: Bioassays on BAW were conducted using a 128-well diet tray assay. one to five second instar BAW larvae were placed in each well (3 mL) of the diet tray that had been previously filled with 1 mL of artificial diet to which 50 μg/cm^2 of the test compound (dissolved in 50 μL of 90:10 acetone-water mixture) had been applied (to each of eight wells) and then allowed to dry. Trays were covered with a clear self-adhesive cover, and held at 25° C., 14:10 light-dark for five to seven days. Percent mortality was recorded for the larvae in each well; activity in the eight wells was then averaged. The results are indicated in the tables entitled “Table ABC: Assay Results (F)”, “Table ABCD: Assay Results (C)”, and “Table ABCDE: Assay Results (P)” (See Table Section).
(§1) Bioassays on BAW and CL were conducted according to the procedures outlined in Example A: Bioassays on Beet Armyworm (“BAW”) and Cabbage Looper (“CL”) using the following concentrations: 5, 0.5, and 0.05 μg/cm^2.

Series [3] concerns Cabbage Looper (CL). Put plainly: Bioassays on CL, 128-well diet tray assay. In kind it is in vivo. Particulars: Trichoplusia ni, 168 h; 50 μg/cm^2 on artificial diet, second instar larvae, five to seven days, 25° C.; read-out: CL % Control (or Mortality) rating. How it is done: Bioassays on CL were conducted using a 128-well diet tray assay. One to five second instar CL larvae were placed in each well (3 mL) of the diet tray that had been previously filled with 1 mL of artificial diet to which 50 μg/cm^2 of the test compound (dissolved in 50 μL of 90:10 acetone-water mixture) had been applied (to each of eight wells) and then allowed to dry. Trays were covered with a clear self-adhesive cover, and held at 25° C., 14:10 light-dark for five to seven days. Percent mortality was recorded for the larvae in each well; activity in the eight wells was then averaged. The results are indicated in the table entitled “Table ABC: Assay Results (F)”, “Table ABCD: Assay Results (C)”, and “Table ABCDE: Assay Results (P)” (See Table Section).
as §1

In the case of `CN(CCNC(=O)c1ccc(/C=C/C(c2cc(Cl)c(Cl)c(Cl)c2)C(F)(F)F)cc1C(F)(F)F)C(=O)CC(F)(F)F` (stereo not drawn) [Compound F20, (E)-4-(4,4,4-trifluoro-3-(3,4,5-trichlorophenyl)but-1-en-1-yl)-N-(2-(3,3,3-trifluoro-N-methylpropanamido)ethyl)-2-(trifluoromethyl)benzamide], the “YFM % Control (or Mortality) rating” value in series [1] is on record as “A (80-100)”. Besides, the mortality at 50 µg/cm2 in series [2] and in series [3] was 50 to 100% in each case.

Turning to `CCCCC(=O)N[C@@H](C)NC(=O)c1ccc(/C=C/C(c2cc(Cl)c(Cl)c(Cl)c2)C(F)(F)F)cc1C(F)(F)F` (stereo partly drawn) [Compound F5, N—((R)-1-Pentanamidoethyl)-4-((E)-4,4,4-trifluoro-3-(3,4,5-trichlorophenyl)but-1-en-1-yl)-2-(trifluoromethyl)benzamide], the “YFM % Control (or Mortality) rating” value in series [1] was “A (80-100)”. In addition, the mortality at 50 µg/cm2 in series [2] and in series [3] was 50 to 100% throughout.

Consider `CC(C)=CC(=O)N[C@@H](C)NC(=O)c1ccc(/C=C/C(c2cc(Cl)c(Cl)c(Cl)c2)C(F)(F)F)cc1C(F)(F)F` (stereo partly drawn) [Compound F8, N—((R)-1-(3-Methylbut-2-enamido)ethyl)-4-((E)-4,4,4-trifluoro-3-(3,4,5-trichlorophenyl)but-1-en-1-yl)-2-(trifluoromethyl)benzamide], for which the “YFM % Control (or Mortality) rating” value in series [1] is “A (80-100)”. Also, the mortality at 50 µg/cm2 in series [2] and in series [3] was 50 to 100% in each case.

As to `Cc1cc(/C=C/C(c2cc(Br)c(Cl)c(Br)c2)C(F)(F)F)ccc1C(=O)N[C@H](C)NC(=O)CCC(F)(F)F` (stereo partly drawn) [Compound P14, 4-((E)-3-(3,5-Dibromo-4-chlorophenyl)-4,4,4-trifluorobut-1-en-1-yl)-2-methyl-N—((R)-1-(4,4,4-trifluorobutanamido)ethyl)benzamide], in series [1], the “YFM % Control (or Mortality) rating” value is on record as “A (80-100)”. For the same compound, the mortality at 50 µg/cm2 in series [2] and in series [3] was 50 to 100% each time.

On to `CN(NC(=O)c1ccc(/C=C/C(c2cc(Cl)c(Cl)c(Cl)c2)C(F)(F)F)cc1C(F)(F)F)C(=O)CC(F)(F)F` (stereo not drawn) [Compound F22, (E)-N′-methyl-4-(4,4,4-trifluoro-3-(3,4,5-trichlorophenyl)but-1-en-1-yl)-2-(trifluoromethyl)-N′-(3,3,3-trifluoropropanoyl)benzohydrazide], for which, in series [1], the “YFM % Control (or Mortality) rating” value was “A (80-100)”. The mortality at 50 µg/cm2 in series [2] and in series [3] was 50 to 100% in each case.

For the compound `CN(NC(=O)c1ccc(/C=C/C(c2cc(Cl)c(Cl)c(Cl)c2)C(F)(F)F)cc1C(F)(F)F)C(=O)CCC(F)(F)F` (stereo not drawn) [Compound F23, (E)-N′-Methyl-4-(4,4,4-trifluoro-3-(3,4,5-trichlorophenyl)but-1-en-1-yl)-N′-(4,4,4-trifluorobutanoyl)-2-(trifluoromethyl)benzohydrazide], the “YFM % Control (or Mortality) rating” value in series [1] is “A (80-100)”. Moreover, the mortality at 50 µg/cm2 in series [2] and in series [3] was 50 to 100% throughout.

`CC(NC(=O)c1ccc(/C=C/C(c2cc(Cl)c(Cl)c(Cl)c2)C(F)(F)F)cc1C(F)(F)F)NC(=O)C(C)(C)C` (stereo in doubt) [Compound F19, N—((S)-1-Pivalamidoethyl)-4-((E)-4,4,4-trifluoro-3-(3,4,5-trichlorophenyl)but-1-en-1-yl)-2-(trifluoromethyl)benzamide]: the “YFM % Control (or Mortality) rating” value in series [1] was “A (80-100)”. Further, the mortality at 50 µg/cm2 in series [2] and in series [3] was 50 to 100% each time.

For the compound `Cc1cc(/C=C/C(c2cc(Cl)c(F)c(Cl)c2)C(F)(F)F)ccc1C(=O)N[C@H](C)NC(=O)CCC(F)(F)F` (stereo partly drawn) [Compound P13, 4-((E)-3-(3,5-Dichloro-4-fluorophenyl)-4,4,4-trifluorobut-1-en-1-yl)-2-methyl-N—((R)-1-(4,4,4-trifluorobutanamido)ethyl)benzamide], the “YFM % Control (or Mortality) rating” value in series [1] was “A (80-100)”. Further, the mortality at 50 µg/cm2 in series [2] and in series [3] was 50 to 100% in each case.

As to `CC(C)CC(=O)N[C@@H](C)NC(=O)c1ccc(/C=C/C(c2cc(Cl)c(Cl)c(Cl)c2)C(F)(F)F)cc1C(F)(F)F` (stereo partly drawn) [Compound F6, N—((R)-1-(3-Methylbutanamido)ethyl)-4-((E)-4,4,4-trifluoro-3-(3,4,5-trichlorophenyl)but-1-en-1-yl)-2-(trifluoromethyl)benzamide], the “YFM % Control (or Mortality) rating” value in series [1] is recorded as “A (80-100)”. Further, the mortality at 50 µg/cm2 in series [2] and in series [3] was 50 to 100% in each case.

As for `C[C@@H](NC(=O)c1ccc(/C=C/C(c2cc(Cl)c(Cl)c(Cl)c2)C(F)(F)F)cc1C(F)(F)F)NC(=O)C(C)(C)C(F)(F)F` (stereo partly drawn) [Compound P33, N—((S)-1-(3,3,3-Trifluoro-2,2-dimethylpropanamido)ethyl)-4-((E)-4,4,4-trifluoro-3-(3,4,5-trichlorophenyl)but-1-en-1-yl)-2-(trifluoromethyl)benzamide], in series [1], the “YFM % Control (or Mortality) rating” value is given as “A (80-100)”. For the same compound, the mortality at 50 µg/cm2 in series [2] and in series [3] was 50 to 100% each time.

For `C[C@@H](NC(=O)c1ccc(/C=C/C(c2cc(Cl)c(Cl)c(Cl)c2)C(F)(F)F)cc1C(F)(F)F)NC(=O)C1CC1` (stereo partly drawn) [Compound F7, N—((R)-1-(Cyclopropanecarboxamido)ethyl)-4-((E)-4,4,4-trifluoro-3-(3,4,5-trichlorophenyl)but-1-en-1-yl)-2-(trifluoromethyl)benzamide], the “YFM % Control (or Mortality) rating” value in series [1] is reported as “A (80-100)”. Also, the mortality at 50 µg/cm2 in series [2] and in series [3] was 50 to 100% each time.

Turning to `C[C@H](NC(=O)CCC(F)(F)F)NC(=O)c1ccc(/C=C/C(c2cc(Br)c(Cl)c(Br)c2)C(F)(F)F)cc1C(F)(F)F` (stereo partly drawn) [Compound P10, 4-((E)-3-(3,5-Dibromo-4-chlorophenyl)-4,4,4-trifluorobut-1-en-1-yl)-N—((R)-1-(4,4,4-trifluorobutanamido)ethyl)-2-(trifluoromethyl)benzamide], the “YFM % Control (or Mortality) rating” value in series [1] is given as “A (80-100)”. For the same compound, the mortality at 50 µg/cm2 in series [2] and in series [3] was 50 to 100% throughout.

`CN(CCNC(=O)c1ccc(/C=C/C(c2cc(Cl)c(Cl)c(Cl)c2)C(F)(F)F)cc1C(F)(F)F)C(=O)C(F)(F)F` (stereo not drawn) [Compound F21, (E)-4-(4,4,4-trifluoro-3-(3,4,5-trichlorophenyl)but-1-en-1-yl)-N-(2-(2,2,2-trifluoro-N-methylacetamido)ethyl)-2-(trifluoromethyl)benzamide]: in series [1], the “YFM % Control (or Mortality) rating” value is reported as “B (More than 0-Less than 80)”. The mortality at 50 µg/cm2 in series [2] and in series [3] was 50 to 100% each time.

For `C[C@H](NC(=O)CCC#N)NC(=O)c1ccc(/C=C/C(c2cc(Cl)c(Cl)c(Cl)c2)C(F)(F)F)cc1C(F)(F)F` (stereo partly drawn) [Compound F9, N—((R)-1-(3-cyanopropanamido)ethyl)-4-((E)-4,4,4-trifluoro-3-(3,4,5-trichlorophenyl)but-1-en-1-yl)-2-(trifluoromethyl)benzamide], the “YFM % Control (or Mortality) rating” value in series [1] is recorded as “A (80-100)”. Besides, the mortality at 50 µg/cm2 in series [2] and in series [3] was 50 to 100% throughout.

By mortality is commonly meant the share of the test organisms that died.
